Measured values published in patent US20260083865A1, “PROSTATE SPECIFIC MEMBRANE ANTIGEN (PSMA) LIGANDS AND USE THEREOF” (priority 2022, published 2026).
Read-outs that look alike come from different tables or passages of the source. Numbered stars: 1 amine (or outer) side, 2 acyl side, 3 side chain; on linkers, the order of the positions; unused ones are H or OH. Bridge positions count the residues as written; N and C are the ends. Square brackets hold non-standard residues; d marks the D form. Peptide text beside a SMILES is read from it. * marks the point of attachment. DOTA = O=C(O)CN1CCN(CC(=O)O)CCN(CC(=O)*)CCN(CC(=O)O)CC1; Phe(4-CN) = N#Cc1ccc(C[C@H](N)C(=O)O)cc1; Phe(4-Cl) = N[C@@H](Cc1ccc(Cl)cc1)C(=O)O; X1 = O=C(CC1CCN([*:1])CC1)[*:2]; NMeN = CN[C@@H](CC(N)=O)C(=O)O; Tle = CC(C)(C)[C@H](N)C(=O)O; Nle = CCCC[C@H](N)C(=O)O; Aib = CC(C)(N)C(=O)O

How the values were obtained:
[1] = molecular target: T1, Fc-fusion protein of human PSMA (hPSMA-Fc) (Homo sapiens, UniProt Q04609); test: Surface plasmon resonance assay (Biacore T200, single cycle kinetic); assay type: binding; settings: read-out: pKD CAT (converted)
T1 construct: purchased Acro Biosystems PSA-H5264
Method in brief: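 hPSMA-Fc was captured (~1000 RU) on an Fc-binding-peptide CM5 chip, and compounds were run in single cycle kinetic mode at 25° C in HBST with 0.1% DMSO. Double-blank-corrected sensorgrams were fitted to a 1:1 Langmuir model to give KD, reported as pKD.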

[2] = molecular target: T2, PSMA-expressing C4-2 cells (Homo sapiens, UniProt Q04609); test: FACS binding assay (competition with 50 nM PSM-0183); settings: read-out: pIC50 [C4-2] CAT (converted)
T2 construct: PSMA-expressing C4-2 cells (ATCC, Cat. No. CRL-3314) were cultured in RPMI-1640; host or cells: C4-2 cells
Method in brief: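 C4-2 cells were incubated 1 h at 4 °C with 50 nM AF488-labelled peptide PSM-0183 plus increasing test compound concentrations, then washed twice in ice-cold buffer. Median fluorescence in the AF488 channel was read by flow cytometry. IC50/pIC50 was derived by 4PL fitting of MFI versus concentration.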

[3] = FACS binding, C4-2 cells, category
[4] = PSMA SPR assay, hPSMA-Fc, 25° C., pKD category
[5] = FACS binding, PSMA-expressing C4-2 cells, pIC50 category

T2 sequence (Q04609 whole entry): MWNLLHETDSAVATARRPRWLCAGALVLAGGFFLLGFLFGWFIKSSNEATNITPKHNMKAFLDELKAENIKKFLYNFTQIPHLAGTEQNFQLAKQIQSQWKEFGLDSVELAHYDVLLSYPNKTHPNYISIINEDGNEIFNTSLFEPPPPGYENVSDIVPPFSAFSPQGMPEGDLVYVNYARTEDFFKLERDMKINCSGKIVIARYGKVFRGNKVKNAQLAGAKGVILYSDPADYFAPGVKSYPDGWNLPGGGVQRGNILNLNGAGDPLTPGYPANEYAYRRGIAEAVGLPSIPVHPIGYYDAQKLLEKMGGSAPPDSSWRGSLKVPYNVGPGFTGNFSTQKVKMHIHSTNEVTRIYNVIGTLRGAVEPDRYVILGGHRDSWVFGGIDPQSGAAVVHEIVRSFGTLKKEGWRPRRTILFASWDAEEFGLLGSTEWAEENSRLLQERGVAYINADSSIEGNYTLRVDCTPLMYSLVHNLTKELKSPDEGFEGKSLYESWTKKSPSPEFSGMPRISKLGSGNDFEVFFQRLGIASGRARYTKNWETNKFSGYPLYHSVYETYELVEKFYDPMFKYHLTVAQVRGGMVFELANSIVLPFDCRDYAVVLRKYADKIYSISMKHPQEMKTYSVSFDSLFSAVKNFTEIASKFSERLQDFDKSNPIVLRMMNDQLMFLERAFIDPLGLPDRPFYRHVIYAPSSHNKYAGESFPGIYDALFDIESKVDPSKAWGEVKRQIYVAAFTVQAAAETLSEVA
T1 sequence (Q04609 44-750 limits assumed): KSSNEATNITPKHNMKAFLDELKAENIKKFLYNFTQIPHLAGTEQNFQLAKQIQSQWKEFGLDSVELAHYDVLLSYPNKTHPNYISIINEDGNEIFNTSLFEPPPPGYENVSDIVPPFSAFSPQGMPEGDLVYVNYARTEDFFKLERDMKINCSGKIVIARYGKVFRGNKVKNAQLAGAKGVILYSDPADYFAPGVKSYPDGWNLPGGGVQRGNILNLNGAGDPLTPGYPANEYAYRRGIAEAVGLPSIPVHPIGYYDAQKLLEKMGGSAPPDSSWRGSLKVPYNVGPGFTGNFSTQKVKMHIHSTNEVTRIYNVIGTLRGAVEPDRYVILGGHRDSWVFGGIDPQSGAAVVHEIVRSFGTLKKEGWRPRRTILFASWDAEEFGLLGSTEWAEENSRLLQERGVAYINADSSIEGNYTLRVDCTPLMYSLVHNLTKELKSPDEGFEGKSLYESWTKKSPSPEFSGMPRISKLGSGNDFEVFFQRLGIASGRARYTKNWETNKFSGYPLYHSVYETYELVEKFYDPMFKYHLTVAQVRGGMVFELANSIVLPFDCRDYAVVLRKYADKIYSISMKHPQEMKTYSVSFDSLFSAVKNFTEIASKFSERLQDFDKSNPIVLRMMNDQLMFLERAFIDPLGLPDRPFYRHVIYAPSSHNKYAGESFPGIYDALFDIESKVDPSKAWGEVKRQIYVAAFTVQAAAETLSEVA

| Compound | Kd ([1]; PSMA SPR assay, category) [nM] | IC50 [2, 3] [nM] | Kd [1, 4] [nM] | IC50 [2, 5] [nM] | further results |
| --- | --- | --- | --- | --- | --- |
| CCCC[C@H](NC(=O)[C@@H]1CSSC[C@H](NC(=O)[C@H](Cc2ccccc2)NC(=O)[C@H](C)NC(=O)[C@@H](NC(C)=O)[C@@H](C)O)C(=O)N[C@@H](CCCCN)C(=O)N[C@@H](CCCNC(=N)N)C(=O)N[C@@H](C)C(=O)N[C@@H](CC(N)=O)C(=O)N1)C(=O)N[C@H](C(=O)N[C@@H](C)C(N)=O)[C@@H](C)O [PSM-0562, Ac-Thr-Als-Phe-[Cys-Lys-Arg-Ala-Asn-Cys]-Nle-Thr-Ala-NH2] (Ac-TAFCKRANC[Nle]TA-NH2; disulfide 4-9) | 126 to 501 | 200 to 1260 |  |  |  |
| C[C@@H]1NC(=O)[C@H](CCCNC(=N)N)NC(=O)[C@H](CCCCN)NC(=O)[C@@H](NC(=O)[C@H](Cc2ccc(Cl)cc2)NC(=O)C(C)(C)NC(=O)[C@@H](NC(=O)CC2CCN(C(=O)CN3CCN(CC(=O)O)CCN(CC(=O)O)CCN(CC(=O)O)CC3)CC2)[C@@H](C)O)CSSC[C@@H](C(=O)N[C@H](C(=O)N[C@H](C(N)=O)[C@@H](C)O)C(C)(C)C)NC(=O)[C@H](CC(N)=O)N(C)C1=O [PSM-0585, DOTA-Cmp-Thr-Aib-Pcf-[Cys-Lys-Arg-Ala-Nmn-Cys]-Tle-Thr-NH2] ({DOTA}-[X1]T[Aib][Phe(4-Cl)]CKRA[NMeN]C[Tle]T-NH2; disulfide 5-10) | 12.6 to 126 | < 200 |  |  |  |
| CC(=O)NC(C)(C)C(=O)N[C@@H](Cc1ccc(Cl)cc1)C(=O)N[C@H]1CSSC[C@@H](C(=O)N[C@H](C(=O)N[C@H](C(N)=O)[C@@H](C)O)C(C)(C)C)NC(=O)[C@H](CC(N)=O)NC(=O)C(C)(C)NC(=O)[C@H](CCCNC(=N)N)NC(=O)[C@H](CCCCN)NC1=O [PSM-0559, Ac-Aib-Pcf-[Cys-Lys-Arg-Aib-Asn-Cys]-Tle-Thr-NH2] (Ac-[Aib][Phe(4-Cl)]CKR[Aib]NC[Tle]T-NH2; disulfide 3-8) | < 12.6 | < 200 |  |  |  |
| C[C@@H](O)[C@H](NC(=O)[C@@H](NC(=O)[C@@H]1CSSC[C@H](NC(=O)[C@H](Cc2ccc(Cl)cc2)NC(=O)C(C)(C)NC(=O)CN2CCN(CC(=O)O)CCN(CC(=O)O)CCN(CC(=O)O)CC2)C(=O)N[C@@H](CCCCN)C(=O)N[C@@H](CCCNC(=N)N)C(=O)NC(C)(C)C(=O)N[C@@H](CC(N)=O)C(=O)N1)C(C)(C)C)C(N)=O [PSM-0290, DOTA-Aib-Pcf-[Cys-Lys-Arg-Aib-Asn-Cys]-Tle-Thr-NH2] ({DOTA}-[Aib][Phe(4-Cl)]CKR[Aib]NC[Tle]T-NH2; disulfide 3-8) |  |  | > 501 | > 3160 |  |
| CCCC[C@H](NC(=O)[C@@H]1CSSC[C@H](NC(=O)[C@H](Cc2ccccc2)NC(=O)[C@H](C)NC(=O)[C@@H](NC(C)=O)[C@@H](C)O)C(=O)N[C@@H](CCCCN)C(=O)N[C@@H](CCCNC(=N)N)C(=O)N[C@H](C)C(=O)N[C@@H](CC(N)=O)C(=O)N1)C(=O)N[C@H](C(=O)N[C@@H](CC(=O)O)C(N)=O)[C@@H](C)O [PSM-0474, Ac-Thr-Ala-Phe-[Cys-Lys-Arg-ala-Asn-Cys]-Nle-Thr-Asp-NH2] |  |  |  |  | Kd ([1]; pKD category for PSMA SPR activity assay, hPSMA-Fc, 25° C.): > 501 nM; IC50 ([2]; pIC50 category of FACS binding, C4-2 cells): 1260 to 3160 nM |

More lines, main results first:

| Kd ([1]; PSMA SPR assay, category) [nM] | IC50 [2, 3] [nM] | Kd [1, 4] [nM] | IC50 [2, 5] [nM] | Compound | further results |
| --- | --- | --- | --- | --- | --- |
|  |  | 12.6 to 126 | < 200 | CC(=O)N[C@H](C(=O)NC(C)(C)C(=O)N[C@@H](Cc1ccccc1)C(=O)N[C@H]1CSSC[C@@H](C(=O)N[C@H](C(=O)N[C@H](C(=O)N[C@@H](CC(=O)O)C(N)=O)[C@@H](C)O)C(C)(C)C)NC(=O)[C@H](CC(N)=O)NC(=O)C(C)(C)NC(=O)[C@H](CCC(N)=O)NC(=O)[C@H](CCCCN)NC1=O)[C@@H](C)O [PSM-0334, Ac-Thr-Aib-Phe-[Cys-Lys-Gln-Aib-Asn-Cys]-Tle-Thr-Asp-NH2] (Ac-T[Aib]FCKQ[Aib]NC[Tle]TD-NH2; disulfide 4-9) |  |
|  |  | < 12.6 | < 200 | CC(=O)N[C@H](C(=O)NC(C)(C)C(=O)N[C@@H](Cc1ccc(C#N)cc1)C(=O)N[C@H]1CSSC[C@@H](C(=O)N[C@H](C(=O)N[C@H](C(N)=O)[C@@H](C)O)C(C)(C)C)NC(=O)[C@H](CC(N)=O)NC(=O)C(C)(C)NC(=O)[C@H](CCCNC(=N)N)NC(=O)[C@H](CCCCN)NC1=O)[C@@H](C)O [PSM-0278, Ac-Thr-Aib-Pnf-[Cys-Lys-Arg-Aib-Asn-Cys]-Tle-Thr-NH2] (Ac-T[Aib][Phe(4-CN)]CKR[Aib]NC[Tle]T-NH2; disulfide 4-9) |  |
